≈ marks a conversion by molar mass, not a printed value.
Assays:
Type in all cases: functional
Conditions in all cases: time 16-24 hrs
Staphylococcus aureus [1] = assay: Antibacterial activity against vancomycin-intermediate Staphylococcus aureus incubated for 16 to 24 hrs by CLSI based broth microdilution method
Klebsiella pneumoniae = assay: Antibacterial activity against Klebsiella pneumoniae clinical isolate incubated for 16 to 24 hrs by CLSI based broth microdilution method
Staphylococcus aureus [2] = assay: Antibacterial activity against methicillin-susceptible Staphylococcus aureus incubated for 16 to 24 hrs by CLSI based broth microdilution method
Acinetobacter baumannii = assay: Antibacterial activity against Carbapenem-resistant Acinetobacter baumannii clinical isolate incubated for 16 to 24 hrs by CLSI based broth microdilution method
Escherichia coli = assay: Antibacterial activity against Escherichia coli AB1157 incubated for 16 to 24 hrs by CLSI based broth microdilution method
Enterococcus faecium [3] = assay: Antibacterial activity against vancomycin-resistant Enterococcus faecium harboring VanM phenotype incubated for 16 to 24 hrs by CLSI based broth microdilution method
Enterococcus faecium [4] = assay: Antibacterial activity against vancomycin-resistant Enterococcus faecium harboring VanB phenotype incubated for 16 to 24 hrs by CLSI based broth microdilution method
Enterococcus faecium [5] = assay: Antibacterial activity against vancomycin-resistant Enterococcus faecium harboring VanA phenotype incubated for 16 to 24 hrs by CLSI based broth microdilution method
Pseudomonas aeruginosa = assay: Antibacterial activity against Pseudomonas aeruginosa PAO1 incubated for 16 to 24 hrs by CLSI based broth microdilution method

| Compound | MIC (Staphylococcus aureus [1]) [µg/mL] | MIC (Klebsiella pneumoniae) [µg/mL] | MIC (Staphylococcus aureus [2]) [µg/mL] | MIC (Acinetobacter baumannii) [µg/mL] | MIC (Escherichia coli) [µg/mL] | MIC (Enterococcus faecium [3]) [µg/mL] | MIC (Enterococcus faecium [4]) [µg/mL] | MIC (Enterococcus faecium [5]) [µg/mL] | MIC (Pseudomonas aeruginosa) [µg/mL] |
| --- | --- | --- | --- | --- | --- | --- | --- | --- | --- |
| CC(C)C[C@@H](N)C(=O)N[C@H]1C(=O)N[C@@H](CC(N)=O)C(=O)N[C@H]2C(=O)N[C@H]3C(=O)N[C@H](C(=O)N[C@H](C(=O)NCc4ccc(-c5ccc(CN)cc5)cc4)c4cc(O)cc(O)c4-c4cc3ccc4O)[C@H](O)c3ccc(c(Cl)c3)Oc3cc2cc(c3O[C@@H]2O[C@H](CO)[C@@H](O)[C@H](O)[C@H]2O[C@H]2C[C@](C)(N)[C@H](O)[C@H](C)O2)Oc2ccc(cc2Cl)[C@H]1O | 1 (≈ 0.614 µM) | > 128 | ≤ 0.063 | 128 (≈ 78.6 µM) | 16 (≈ 9.82 µM) | 8 (≈ 4.91 µM) | 8 (≈ 4.91 µM) | 8 (≈ 4.91 µM) | > 128 |
| CC(C)C[C@@H](N)C(=O)N[C@H]1C(=O)N[C@@H](CC(N)=O)C(=O)N[C@H]2C(=O)N[C@H]3C(=O)N[C@H](C(=O)N[C@H](C(=O)O)c4cc(O)c(CNCCCCCCCCN)c(O)c4-c4cc3ccc4O)[C@H](O)c3ccc(c(Cl)c3)Oc3cc2cc(c3O[C@@H]2O[C@H](CO)[C@@H](O)[C@H](O)[C@H]2O[C@H]2C[C@](C)(N)[C@H](O)[C@H](C)O2)Oc2ccc(cc2Cl)[C@H]1O | 4 (≈ 2.51 µM) | > 128 | 4 (≈ 2.51 µM) | 128 (≈ 80.4 µM) | 128 (≈ 80.4 µM) | 128 (≈ 80.4 µM) | 64 (≈ 40.2 µM) | 128 (≈ 80.4 µM) | 128 (≈ 80.4 µM) |
| CC(C)C[C@@H](N)C(=O)N[C@H]1C(=O)N[C@@H](CC(N)=O)C(=O)N[C@H]2C(=O)N[C@H]3C(=O)N[C@H](C(=O)N[C@H](C(=O)NCCCCCCCCNC(=N)N)c4cc(O)cc(O)c4-c4cc3ccc4O)[C@H](O)c3ccc(c(Cl)c3)Oc3cc2cc(c3O[C@@H]2O[C@H](CO)[C@@H](O)[C@H](O)[C@H]2O[C@H]2C[C@](C)(N)[C@H](O)[C@H](C)O2)Oc2ccc(cc2Cl)[C@H]1O | 2 (≈ 1.25 µM) | > 128 | 0.5 (≈ 0.312 µM) | 64 (≈ 39.9 µM) | 8 (≈ 4.99 µM) | 32 (≈ 20 µM) | 8 (≈ 4.99 µM) | 16 (≈ 9.98 µM) | 128 (≈ 79.8 µM) |
| CC(C)C[C@@H](N)C(=O)N[C@H]1C(=O)N[C@@H](CC(N)=O)C(=O)N[C@H]2C(=O)N[C@H]3C(=O)N[C@H](C(=O)N[C@H](C(=O)NCCc4ccc(-c5ccc(CN)cc5)cc4)c4cc(O)cc(O)c4-c4cc3ccc4O)[C@H](O)c3ccc(c(Cl)c3)Oc3cc2cc(c3O[C@@H]2O[C@H](CO)[C@@H](O)[C@H](O)[C@H]2O[C@H]2C[C@](C)(N)[C@H](O)[C@H](C)O2)Oc2ccc(cc2Cl)[C@H]1O | 1 (≈ 0.608 µM) | > 128 | 0.25 (≈ 0.152 µM) | 128 (≈ 77.9 µM) | 8 (≈ 4.87 µM) | 8 (≈ 4.87 µM) | 8 (≈ 4.87 µM) | 4 (≈ 2.43 µM) | > 128 |
| CC(C)C[C@@H](N)C(=O)N[C@H]1C(=O)N[C@@H](CC(N)=O)C(=O)N[C@H]2C(=O)N[C@H]3C(=O)N[C@H](C(=O)N[C@H](C(=O)NCCCCCCCCN)c4cc(O)cc(O)c4-c4cc3ccc4O)[C@H](O)c3ccc(c(Cl)c3)Oc3cc2cc(c3O[C@@H]2O[C@H](CO)[C@@H](O)[C@H](O)[C@H]2O[C@H]2C[C@](C)(N)[C@H](O)[C@H](C)O2)Oc2ccc(cc2Cl)[C@H]1O | 4 (≈ 2.56 µM) | > 128 | 1 (≈ 0.64 µM) | > 128 | 32 (≈ 20.5 µM) | 32 (≈ 20.5 µM) | 32 (≈ 20.5 µM) | 32 (≈ 20.5 µM) | 128 (≈ 82 µM) |

From ChEMBL document CHEMBL6127119 (J Med Chem, 2024)
